Assay results: the supplement of paper PMC10307832

Experiments:
Assay in all cases: relative viability (nuclei count vs DMSO), 5 days (fraction); higher = more cells survive
[1] = compound: COc1cc2nccc(Oc3ccc(NC(=O)C4(C(=O)Nc5ccc(F)cc5)CC4)cc3)c2cc1OC [Cabozantinib] + C[C@]1(O)C[C@@H](c2nc(-c3ccc4ccc(-c5ccccc5)nc4c3)c3c(N)nccn32)C1 [Linsitinib] (partner 1 µM)
Summary of the method: (§1)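 Lung cancer cell lines in 1536-well plates were dosed by pin tool the day after seeding, either with one drug alone or with a fixed anchor-drug dose plus five library-drug doses (not always all listed) in √10 steps. After 5 days, cells were fixed and their nuclei stained in one step (final 0.05% Triton X-100, 1% formaldehyde, 1 ug/ml Hoechst), then counted on 4× images. Relative viability is the nuclei count in treated wells divided by that in vehicle wells. Values are medians of duplicate plates.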

Zosuquidar + OSI-027 = compound: O[C@@H](COc1cccc2ncccc12)CN1CCN([C@@H]2c3ccccc3[C@@H]3[C@H](c4ccccc42)C3(F)F)CC1 [Zosuquidar] + COc1cccc2cc(-c3nc([C@H]4CC[C@H](C(=O)O)CC4)n4ncnc(N)c34)[nH]c12 [OSI-027] (partner 0.5 µM)
Summary of the method: as §1

Zosuquidar + Luminespib = compound: O[C@@H](COc1cccc2ncccc12)CN1CCN([C@@H]2c3ccccc3[C@@H]3[C@H](c4ccccc42)C3(F)F)CC1 [Zosuquidar] + CCNC(=O)c1noc(-c2cc(C(C)C)c(O)cc2O)c1-c1ccc(CN2CCOCC2)cc1 [Luminespib] (partner 0.01 µM)
Summary of the method: as §1

Zosuquidar + Pemetrexed = compound: O[C@@H](COc1cccc2ncccc12)CN1CCN([C@@H]2c3ccccc3[C@@H]3[C@H](c4ccccc42)C3(F)F)CC1 [Zosuquidar] + Nc1nc2[nH]cc(CCc3ccc(C(=O)N[C@@H](CCC(=O)O)C(=O)O)cc3)c2c(=O)[nH]1 [Pemetrexed] (partner 0.2 µM)
Summary of the method: as §1

Row | Cell Line | relative viability ([1]; first compound 0.02 µM) | relative viability ([1]; first compound 0.06325 µM) | relative viability ([1]; first compound 0.2 µM) | relative viability ([1]; first compound 0.6325 µM) | relative viability ([1]; first compound 2 µM) | relative viability (Zosuquidar + OSI-027; first compound 0.01 µM) | relative viability (Zosuquidar + OSI-027; first compound 0.03162 µM) | relative viability (Zosuquidar + OSI-027; first compound 0.1 µM) | relative viability (Zosuquidar + OSI-027; first compound 0.3162 µM) | relative viability (Zosuquidar + OSI-027; first compound 1 µM) | relative viability (Zosuquidar + Luminespib; first compound 0.01 µM) | relative viability (Zosuquidar + Luminespib; first compound 0.03162 µM) | relative viability (Zosuquidar + Luminespib; first compound 0.1 µM) | relative viability (Zosuquidar + Luminespib; first compound 0.3162 µM) | relative viability (Zosuquidar + Luminespib; first compound 1 µM) | relative viability (Zosuquidar + Pemetrexed; first compound 0.01 µM) | relative viability (Zosuquidar + Pemetrexed; first compound 0.03162 µM) | relative viability (Zosuquidar + Pemetrexed; first compound 0.1 µM) | relative viability (Zosuquidar + Pemetrexed; first compound 0.3162 µM) | relative viability (Zosuquidar + Pemetrexed; first compound 1 µM)
1 | COR-L23 | 1.03 | 1.27 | 0.866 | 0.954 | 0.863 | 0.738 | 0.702 | 0.688 | 0.858 | 0.757 | 0.619 | 0.631 | 0.747 | 0.777 | 0.776 | 0.222 | 0.188 | 0.201 | 0.198 | 0.189
2 | COR-L 105 | 0.945 | 1.04 | – | 0.937 | 0.839 | 0.595 | 0.679 | 0.519 | 0.79 | 0.613 | 0.923 | 0.789 | 0.757 | 0.858 | 0.782 | 1.27 | 1.01 | 1.18 | 1.1 | 1.16
3 | EKVX | 0.955 | 1.11 | 0.806 | 0.989 | 1.09 | 0.743 | 0.622 | 0.536 | 0.707 | 0.762 | 0.926 | 0.8 | 0.749 | 0.812 | 0.832 | 0.373 | 0.392 | – | 0.435 | 0.444
4 | EMC-BAC-2 | 0.842 | 0.853 | 0.775 | 0.834 | 0.797 | 0.365 | 0.365 | 0.373 | 0.435 | 0.376 | 1.19 | 1.19 | 1.05 | 1.29 | 1.11 | 0.459 | 0.417 | 0.441 | 0.457 | 0.335
5 | EPLC-272H | 1.3 | 1.05 | 1.03 | 1.06 | 1.17 | 0.275 | 0.335 | 0.273 | 0.31 | 0.275 | 0.39 | 0.362 | 0.514 | 0.361 | 0.266 | 0.376 | 0.317 | 0.357 | 0.404 | 0.363
6 | H3255 | 1.16 | 0.966 | – | 1.01 | 1.1 | 0.639 | 0.532 | 0.451 | 0.624 | 0.565 | 1.02 | 0.925 | 0.666 | 1.05 | 0.814 | 0.574 | 0.569 | 0.506 | 0.574 | 0.535
7 | HARA | 1.03 | 1.06 | 0.874 | 0.994 | 0.986 | 0.49 | – | 0.415 | 0.564 | 0.398 | 0.586 | – | 0.837 | 0.92 | 0.649 | 0.259 | 0.234 | 0.247 | 0.31 | 0.277
8 | HCC-15 | 1 | 0.958 | 0.846 | 0.843 | 0.736 | 0.653 | 0.64 | 0.568 | 0.779 | 0.725 | 0.122 | 0.5 | 0.21 | 0.222 | 0.533 | 0.209 | 0.218 | 0.255 | 0.219 | 0.236
9 | HCC-44 | 0.807 | 0.795 | 0.726 | 0.64 | 0.573 | 0.53 | 0.391 | 0.542 | 0.521 | 0.581 | 1.14 | 1.16 | 1.17 | 1.01 | 1.08 | 0.613 | 0.708 | 0.663 | 0.618 | 0.632
10 | HCC-827 | 0.945 | 1.02 | – | 1.03 | 0.972 | 0.828 | 0.723 | 0.673 | 0.828 | 0.788 | 0.518 | 0.576 | 0.501 | 0.704 | 0.7 | 0.237 | 0.272 | 0.255 | 0.263 | 0.279
11 | HOP-62 | 1.09 | 0.974 | 1.1 | 1.01 | 1.02 | 0.768 | 0.833 | 0.817 | 0.865 | 0.906 | 0.878 | 0.947 | 0.914 | 0.99 | 0.896 | 0.256 | 0.38 | 0.341 | 0.308 | 0.295
12 | LC-2-ad | 0.846 | 0.795 | 0.659 | 0.56 | 0.461 | 0.865 | 0.814 | 0.829 | 1.09 | 0.864 | 1.05 | 0.85 | 0.981 | 0.999 | 0.987 | 0.255 | 0.276 | 0.296 | 0.31 | 0.282
13 | LCLC-97TM1 | – | 0.187 | 0.2 | 0.195 | 0.204 | 0.469 | 0.507 | 0.366 | 0.502 | 0.641 | 0.765 | 0.755 | 0.742 | 0.814 | 0.913 | 0.192 | 0.191 | – | 0.158 | 0.183
14 | LCLC-103H | 1.21 | 1.01 | 1.07 | 0.986 | 1.05 | 0.474 | 0.469 | 0.402 | 0.478 | 0.528 | 0.983 | 0.957 | 0.74 | 0.93 | 1 | 0.495 | 0.489 | 0.453 | 0.46 | 0.46
15 | LK-2 | 0.724 | 0.73 | 0.619 | 0.633 | 0.716 | 0.172 | 0.216 | 0.21 | 0.209 | 0.174 | 0.185 | 0.184 | 0.169 | 0.172 | 0.172 | 0.281 | 0.306 | 0.205 | 0.26 | 0.271
16 | LOU-NH91 | 0.928 | 1.09 | 0.537 | 0.939 | 0.95 | 0.623 | 0.664 | – | 0.781 | 0.713 | 0.331 | 0.317 | – | 0.343 | 0.355 | 0.409 | 0.411 | 0.448 | 0.423 | 0.396
